Measured values from patent EP0103381B1, “Substituted anthra(1,9-cd)pyrazol-6(2H)-ones” (WARNER-LAMBERT COMPANY, priority 1982, dated 1984).
Where two headings read alike, the source gives them in different places.

Experiments:
Penicillium avellaneum = test: agar plate paper-disc inhibition zone screening; assay type: cell-based; conditions: Hamigera avellanea, read-out: Inhibition Zone Diameter mm (Dose mg/ml) P. Avellaneum; for zone of inhibition at 3000 µg/mL: Dose 3.0 mg/ml
Procedure, shortened: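 Mycelia and spores from a six-day 28°C agar culture, suspended in saline with 0.05% Tween 80 at 20% transmittancy, were seeded into molten agar trays. Compounds at 3,000, 1,000, 500, 100 and 10 mcg/ml (solvent <10%) were applied on 12.7 mm paper discs. After at least 20-24 h incubation, inhibition zone diameter was measured in mm.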

[1] = system: lymphocytic leukemia P388; test: in vivo lymphocytic leukemia P388 test; design: species or system mice; conditions: Mus musculus, P388, ip, 720 h, two single doses four days apart, read-out: T/C × 100 (Percent); for response vs control in vivo at 50 mg/kg: P388, Dose 50 mg/kg intraperitoneally; for response vs control in vivo at 6.25 mg/kg: P388, Dose 6.25 mg/kg intraperitoneally; for response vs control in vivo at 12.5 mg/kg: P388, Dose 12.5 mg/kg intraperitoneally; for response vs control in vivo at 25 mg/kg: P388, Dose 25 mg/kg intraperitoneally; for response vs control in vivo at 100 mg/kg: P388, Dose 100 mg/kg intraperitoneally; for response vs control in vivo at 1.56 mg/kg: P388, Dose 1.56 mg/kg intraperitoneally; for response vs control in vivo at 3.12 mg/kg: P388, Dose 3.12 mg/kg intraperitoneally
Procedure, shortened: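 CD2F mice (6–7 per group) were inoculated intraperitoneally with P388 leukemia ascitic cells. Compounds were then given i.p. as two doses four days apart at various levels. Survival over 30 days was expressed as treated/control time ratio, efficacy criterion T/C×100 >125%.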

Streptococcus faecalis = test: agar plate paper-disc inhibition zone screening; assay type: cell-based; conditions: Enterococcus faecalis, read-out: Inhibition Zone Diameter mm (Dose mg/ml) S. Faecalis; for zone of inhibition at 3000 µg/mL: Dose 3.0 mg/ml; for zone of inhibition at 500 µg/mL: Dose 0.5 mg/ml
Procedure, shortened: (§1)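 Overnight bacterial cultures were suspended in 0.85% saline to 20-35% light transmittancy and mixed into molten assay agar poured in trays. Compounds at 3,000, 1,000, 500, 100 and 10 mcg/ml (solvent <10%) were applied to 12.7 mm paper discs; after 18-20 h at 37°C, inhibition zone diameters were measured in mm.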

Escherichia coli = test: agar plate paper-disc inhibition zone screening; assay type: cell-based; conditions: read-out: Inhibition Zone Diameter mm (Dose mg/ml) E. Coli; for zone of inhibition at 3000 µg/mL: Dose 3.0 mg/ml; for zone of inhibition at 500 µg/mL: Dose 0.5 mg/ml; for zone of inhibition at 1000 µg/mL: Dose 1.0 mg/ml; for zone of inhibition at 100 µg/mL: Dose 0.1 mg/ml
Procedure, shortened: as §1

Aerobacter aerogenes = test: agar plate paper-disc inhibition zone screening; assay type: cell-based; conditions: Klebsiella aerogenes, read-out: Inhibition Zone Diameter mm (Dose mg/ml) A. Aerogenes; for zone of inhibition at 1000 µg/mL: Dose 1.0 mg/ml; for zone of inhibition at 500 µg/mL: Dose 0.5 mg/ml; for zone of inhibition at 3000 µg/mL: Dose 3.0 mg/ml
Procedure, shortened: as §1

Bacillus subtilis = test: agar plate paper-disc inhibition zone screening; assay type: cell-based; conditions: read-out: Inhibition Zone Diameter mm (Dose mg/ml) B. Subtilis; for zone of inhibition at 3000 µg/mL: Dose 3.0 mg/ml; for zone of inhibition at 1000 µg/mL: Dose 1.0 mg/ml; for zone of inhibition at 500 µg/mL: Dose 0.5 mg/ml; for zone of inhibition at 100 µg/mL: Dose 0.1 mg/ml
Procedure, shortened: as §1

L1210 Leukemia = test: L1210 leukemia in vitro; assay type: cell-based; conditions: Mus musculus, procedure of Europ. J. Cancer 17, 671 (1981), read-out: L1210 Leukemia In Vitro ID50 Molar
[2] = system: HCT-8 (human colon adenocarcinoma) cells; test: in vitro activity against human colon adenocarcinoma (HCT-8), cell count; assay type: cell-based
Procedure, shortened: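 HCT-8 cells seeded at ~30,000 cells/ml in RPMI 1640 + 10% FCS, grown 48 hrs at 37°C, then exposed to compound 60-65 hrs. Lysed cells counted by Coulter counter; activity as percent of controls, reported as ID50 (molar quantity killing 50% of cells).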

[3] = Homo sapiens, HCT-8 cells, 60-65 hrs with compound, molar quantity of drug required to kill 50% of the tumor cells, read-out: ID50 Molar

Row | Compound | zone of inhibition at 3000 µg/mL (Penicillium avellaneum) | zone of inhibition at 3000 µg/mL (Streptococcus faecalis) | zone of inhibition at 1000 µg/mL (Aerobacter aerogenes) | zone of inhibition at 3000 µg/mL (Bacillus subtilis) | response vs control in vivo at 6.25 mg/kg [1] | response vs control in vivo at 12.5 mg/kg [1] | response vs control in vivo at 25 mg/kg [1] | IC50 [2, 3] | zone of inhibition at 500 µg/mL (Streptococcus faecalis) | response vs control in vivo at 1.56 mg/kg [1] | response vs control in vivo at 3.12 mg/kg [1] | zone of inhibition at 500 µg/mL (Aerobacter aerogenes) | other results
1 | NCCn1nc2c3c(c(Cl)ccc31)C(=O)c1c(O)ccc(O)c1-2 [7,10-(OH)2; Cl*; (CH2)2NH2, 2-(2-Aminoethyl)-5-chloro-7,10-dihydroxyanthra[1,9-cd]pyrazol-6(2H)-one] | 0 mm | 0 mm | 14 mm | 0 mm | – | – | – | – | – | – | – | – | response vs control in vivo at 50 mg/kg [1]: 125%; zone of inhibition at 3000 µg/mL (Escherichia coli): 15 mm; IC50 (L1210 Leukemia): 630 nM
2 | O=C1c2c(O)ccc(O)c2-c2nn(CCNCCO)c3ccc(Cl)c1c23 [7,10-(OH)2; Cl*; (CH2)2NH(CH2)2OH, 5-Chloro-7,10-dihydroxy-2-[2-[(2-hydroxyethyl)amino]ethyl]anthra[1,9-cd]pyrazol-6(2H)-one] | 0 mm | 0 mm | 14 mm | 0 mm | 131% | 138% | 143% | – | – | – | – | – | response vs control in vivo at 50 mg/kg [1]: 161%; zone of inhibition at 500 µg/mL (Escherichia coli): 14 mm; IC50 (L1210 Leukemia): 660 nM
3 | CCN(CC)CCn1nc2c3c(c(NCCN4CCOCC4)ccc31)C(=O)c1ccccc1-2 [Example 4] | – | – | 15 mm | – | – | – | – | 120 nM | 14 mm | – | – | – | zone of inhibition at 1000 µg/mL (Penicillium avellaneum; Dose 1.0 mg/ml): 14 mm; response vs control in vivo at 100 mg/kg [1]: 145%; response vs control in vivo at 400 mg/kg ([1]; P388, Dose 400 mg/kg intraperitoneally): 211%; zone of inhibition at 1000 µg/mL (Escherichia coli): 14 mm; zone of inhibition at 1000 µg/mL (Bacillus subtilis): 25 mm
4 | O=C1c2ccccc2-c2nn(CCNCCO)c3ccc(NCCNCCO)c1c23 [Example 21, 2-[2-[(2-Hydroxyethyl)amino]ethyl]-5-[[2-[(2-hydroxyethyl)amino]ethyl]amino]anthra[1,9-cd]pyrazol-6(2H)-one] | 0 mm | 0 mm | 14 mm | – | 147% | – | 171% | 960 nM | – | 132% | – | – | response vs control in vivo at 50 mg/kg [1]: 199%; zone of inhibition at 3000 µg/mL (Escherichia coli): 16 mm; zone of inhibition at 500 µg/mL (Bacillus subtilis): 18 mm
5 | NCCNc1ccc2c3c(nn2CCNCCO)-c2ccccc2C(=O)c13 [Example 22, 5-[(2-Aminoethyl)amino]-2-[2-[(2-hydroxyethyl)amino]ethyl]anthra[1,9-cd]pyrazol-6(2H)-one] | 0 mm | 0 mm | – | – | – | 175% | 189% | 42 nM | – | 150% | 162% | 16 mm | zone of inhibition at 100 µg/mL (Escherichia coli): 14 mm; zone of inhibition at 100 µg/mL (Bacillus subtilis): 15 mm
6 | CCN(CC)CCNc1ccc2c3c(nn2CCNCCO)-c2ccccc2C(=O)c13 [Example 23, 5-[[2-(Diethylamino)ethyl]amino]-2-[2-[(2-hydroxyethyl)amino]ethyl]anthra[1,9-cd]pyrazol-6(2H)-one] | 16 mm | – | – | – | 138% | 150% | 149% | 120 nM | 15 mm | 138% | 143% | 18 mm | zone of inhibition at 100 µg/mL (Escherichia coli): 14 mm; zone of inhibition at 100 µg/mL (Bacillus subtilis): 14 mm
7 | CN(C)CCNc1ccc2c3c(nn2CCNCCO)-c2ccccc2C(=O)c13 [Example 25, 2-[2-[(2-Hydroxyethyl)amino]ethyl]-5-[[2-(dimethylamino)ethyl]amino]anthra[1,9-cd]pyrazol-6(2H)-one] | 0 mm | – | – | – | 163% | 166% | 162% | 230 nM | 15 mm | – | 158% | 16 mm | zone of inhibition at 1000 µg/mL (Escherichia coli): 15 mm; zone of inhibition at 500 µg/mL (Bacillus subtilis): 20 mm
8 | NCCn1nc2c3c(c(NCCNCCO)ccc31)C(=O)c1ccccc1-2 [Example 27, 2-(2-Aminoethyl)-5-[[2-[(2-hydroxyethyl)amino]ethyl]amino]anthra[1,9-cd]pyrazol-6(2H)-one] | 0 mm | 0 mm | – | 14 mm | 158% | 173% | 187% | 68 nM | – | 139% | 149% | – | zone of inhibition at 500 µg/mL (Escherichia coli): 14 mm; zone of inhibition at 100 µg/mL (Aerobacter aerogenes; Dose 0.1 mg/ml): 17 mm
9 | CCN(CC)CCNc1ccc2c3c(nn2CCN(CC)CC)-c2c(O)ccc(O)c2C(=O)c13 [Example 29, 2-[2-(Diethylamino)ethyl]-5-[[2-(diethylamino)ethyl]amino]-7,10-dihydroxyanthra[1,9-cd]pyrazol-6(2H)-one] | 16 mm | – | – | – | – | – | 140% | 640 nM | 14 mm | – | – | – | response vs control in vivo at 100 mg/kg [1]: 180%; zone of inhibition at 500 µg/mL (Escherichia coli): 14 mm; zone of inhibition at 3000 µg/mL (Aerobacter aerogenes): 0 mm; zone of inhibition at 500 µg/mL (Bacillus subtilis): 14 mm
10 | CCN(CC)CCn1nc2c3c(c(NCCN)ccc31)C(=O)c1c(O)ccc(O)c1-2 [Example 30, 5-[(2-Aminoethyl)amino]-2-(2-(diethylamino)ethyl]-7,10-dihydroxyanthra[1,9-cd]pyrazol-6(2H)-one] | 14 mm | 0 mm | – | – | 189% | – | 179% | 380 nM | – | 172% | 154% | 16 mm | zone of inhibition at 1000 µg/mL (Escherichia coli): 15 mm; zone of inhibition at 1000 µg/mL (Bacillus subtilis): 16 mm
11 | CN(C)CCCn1nc2c3c(c(NCCNCCO)ccc31)C(=O)c1c(O)ccc(O)c1-2 [Example 46, 2-[3-(Dimethylamino)propyl]-7,10-dihydroxy-5-[[2-[(2-hydroxyethyl)amino]ethyl]amino]anthra[1,9-cd]pyrazol-6(2H)-one] | 0 mm | 0 mm | – | 0 mm | 185% | 218% | – | – | – | – | – | – | IC50 ([2]; HCT-8 human colon adenocarcinoma cells, 60-65 hrs incubation with compound, Coulter counter cell count as percentage of controls, read-out: ID50 (the source's name)): 92 nM; zone of inhibition at 3000 µg/mL (Escherichia coli): 0 mm; zone of inhibition at 3000 µg/mL (Aerobacter aerogenes): 16 mm
